“Also recorded” adds a separate entry of the source.

This note sets out measurements from patent US20150203561A1, “BETA THYMOSIN FRAGMENTS” (REGENERX BIOPHARMACEUTICALS, INC., priority 2008, published 2015).

Data set [1] deals with tissue damage caused by UV radiation. Put plainly: UV radiation tissue damage (summary table). The arrangement: key: P = active; U = useful. As to conditions: summary of peptide uses.
The test system of another data set is L1. The data set is described as follows: Stimulation of L1 production (summary table). The arrangement: key: P = active; U = useful. As to conditions: summary of peptide uses.
The test system of data set [2] is Human corneal epithelial cells. The data set is described as follows: TNF-a-stimulated IL-8 secretion ELISA, corneal epithelial cells. The following applies: 1 μg/ml, 10 ng/ml TNF-a. The data set is classed as cell-based. The method, then: (§1) Analysis of IL-8 Secretion • Human corneal epithelial cells or dermal Fb were cultured to 80% confluence • Cells were pre-treated with 1 μg/ml Tb4 or peptides for one hour • Cells were stimulated with 10 ng/ml TNF-a in the presence or absence of Tb4 or peptides • Culture medium was analyzed for secreted IL-8 by ELISA (n=3, experiments repeated twice) • Data was analyzed using the t-test

The subject of the next data set is neuron survival. Put plainly: Promotion of neuron survival (summary table). Set-up: key: P = active; U = useful. The following applies: summary of peptide uses.
In data set [3] the test system is TNF-a-stimulated IL8 secretion. Put plainly: Suppression of inflammation (summary table; IL-8 secretion). In kind it is cell-based, human. The arrangement: key: P = active; U = useful. The following applies: summary of peptide uses. As to the method:
as §1

For a further data set, the system named is neurite outgrowth. Put plainly: Promotion of neurite outgrowth (summary table). Set-up: key: P = active; U = useful. As to conditions: summary of peptide uses.
Data set [4] has as its system human dermal fibroblasts. Put plainly: LDH cytotoxicity assay in human dermal fibroblasts exposed to cytotoxic agents. Set-up: key to Protects from cytotoxicity: P = active; U = useful. In kind it is cell-based. As to conditions: for Protects from cytotoxicity: summary of peptide uses. As to the method: Dose Response Analysis of Peptide 3A • Human dermal fibroblasts (Fb, Cascade Biologics, OR) were cultured to 80% confluence • 2 ml CHX (0.002%) in basal medium ±1 μg/ml Tb4 or 1.0, 0.1, 0.01, or 0.001 μg/ml peptide 3A was added to Fb for 1, 2, 3, or 4 hours • 100 μl culture medium (n=4) was added to 100 μl LDH reagent and incubated at room temperature for 20 minutes • OD500 nm was read and averages ±SEM were calculated • Data was analyzed with probability of p≦0.05

The subject of data set [5] is human gingival fibroblasts. Put plainly: CHX-induced apoptosis in human gingival fibroblasts. In kind it is cell-based. The following applies: 0.002% CHX for 2 hours.
The subject of a further data set is human dermal Fb. Put plainly: CHX-induced apoptosis (APOPercentage dye) in human dermal Fb. In kind it is cell-based. Set-up: key to Inhibits apoptosis: P = active; U = useful. The following applies: for Protection of dermal Fb against CHX-induced apoptosis: 1 μg/ml, 0.002% CHX for 2 hours; for Inhibits apoptosis: summary of peptide uses. As to the method:
Effect of Tb4 and Peptide 3A on CHX-induced apoptosis • Human dermal Fb were cultured to 80% confluence • Fb were treated with 0.002% CHX+1 μg/ml Tb4 or peptide 3A, 4A or 6A for 1.5 hours • APOPercentage “dye” was added to the Fb cultures at a 1:50 dilution for an additional 30 minutes • Excess dye was washed from the cells, and digital images were captured. Cells dyed red were apoptotic • Adobe Photoshop was used to calculate the number of red pixels in six digitized images for each treatment • Statistical analysis was done using the t-test

A further data set concerns dermal Fb. The data set is described as follows: TNF-a-stimulated IL-8 secretion ELISA, dermal fibroblasts. The data set is classed as cell-based, human. As to conditions: 1 μg/ml, 10 ng/ml TNF-a. The method, then: as §1
For orientation: An ELISA detects its analyte on a solid surface through an enzyme-linked reagent.

The subject of data set [6] is human gingival fibroblasts. The data set is described as follows: CHX-induced cytotoxicity in human gingival fibroblasts. The data set is classed as cell-based.
Data set [7] deals with p65 subunit of NFkB in human corneal epithelial cells. The data set is described as follows: NFkB nuclear translocation. In kind it is cell-based. Set-up: key: P = active; U = useful. The following applies: summary of peptide uses. As to the method:
Analysis of NFkB Nuclear Translocation • Human corneal epithelial cells were cultured to 80% confluence • Cells were pre-treated with 1 μg/ml Tb4 or peptide 4A or 6A for one hour • Cells were stimulated with 10 ng/ml TNF-a in the presence or absence of Tb4 or peptides for 15 minutes • Cells were fixed and labeled with antibodies to the p65 subunit of NFkB

Data set [8] relates to human dermal fibroblasts. Put plainly: Elastin secretion, colorimetric assay. Set-up: key to Stimulates Elastin: P = active; U = useful. The data set is classed as cell-based. The method, then:
Effect of Tb4 and peptides on elastin secretion • Human dermal fibroblasts (Fb) were cultured to 80% confluence • Cells were treated with 1 μg/ml Tb4 or peptides for 24, 48, or 72 hours. Cells were treated once/day. • Culture supernatants (n=3, experiments repeated 6 times) were assayed for elastin secretion using a colorimetric assay • Data was analyzed using the t-test

The test system of the next data set is T-lymphocyte. Put plainly: Impaired T-lymphocyte blastogenic response (summary table). Set-up: key: P = active; U = useful. As to conditions: summary of peptide uses.
Another data set has as its system cell migration. Put plainly: Stimulation of migration (summary table). The data set is classed as cell-based. As to conditions: summary of peptide uses. The arrangement: key: P = active; U = useful.
[9] abbreviates: 1 μg/ml, 0.002% CHX, 1, 2, or 3 hours exposure.
Setting [10] is: 1 μg/ml, 0.002% CHX, 2 hour exposure.

On to “H-Leu-Lys-Lys-Thr-Glu-Thr-OH (H-LKKTET-OH) [Peptide 1A]”, for which, in [1], the “Inhibits tissue damage caused by UV radiation” value (from here on “Inhibits tissue damage caused”) was “U” and the “Protects tissue from UV radiation damage” value was “U”. Moreover, the “Stimulates L1 production” value with L1 is on record as “U”. In [2], the “Suppression of TNF-a-stimulated IL8 secretion” value (from here on “Suppression”) is recorded as “suppress”. In addition, in the data set with neuron survival, the Promotes neuron survival result was “U”. In addition, the Suppresses inflammation result in data set [3] is “P”. Moreover, in the data set with neurite outgrowth, the Promotes neurite outgrowth entry is “U”.

With H-SDKPDMAEIEKFDKS-OH [Peptide 3A], the “Protection of Fb against the cytotoxic effects of CHX (LDH), dose response analysis” value in the data set on human dermal fibroblasts [4] (1.0 μg/ml peptide, 0.002% CHX, 2 hours) is “protects”. For the same substance, the “Protection of Fb against the cytotoxic effects of CHX (LDH)” value is “protect” in the data set on human dermal fibroblasts [4] (setting [9]); “protect” in the data set on human dermal fibroblasts [4] (setting [10]); “protects” in the data set on human dermal fibroblasts [4] (0.002% and 0.005% CHX, 2 hours exposure). Further, the “Protection of Fb against the cytotoxic effects of benzalkonium chloride (LDH)” value in the data set on human dermal fibroblasts [4] (0.01% benzalkonium chloride) is reported as “protects”. Also, the “Protection of Fb against the cytotoxic effects of hydrogen peroxide (LDH)” value in the data set with human dermal fibroblasts [4] (1% hydrogen peroxide) is reported as “protects”. Besides, in the data set on human dermal fibroblasts [4] (10% ethanol), the “Protection of Fb against the cytotoxic effects of ethanol (LDH)” value was “does not protect”. For the same substance, the “Inhibition of chlorhexidine digluconate, hydrogen peroxide, and benzalkonium chloride-induced cytotoxicity” value with human dermal fibroblasts [4] (cultured human dermal fibroblasts, up to 4 hours exposure) was “can inhibit”. Further, in the data set on human dermal fibroblasts [4], the Protects from cytotoxicity result is given as “P”. Besides, the “Protection of gingival Fb against CHX-induced apoptosis” value in [5] was “protect; also recorded: can inhibit”. Besides, in the data set on human dermal Fb, the “Protection of dermal Fb against CHX-induced apoptosis” value is “protect; also recorded: can inhibit”. In addition, the Inhibits apoptosis result in the data set with human dermal Fb is on record as “P”. Besides, the “Inhibits tissue damage caused” value in [1] was “U”. Besides, the “Protects tissue from UV radiation damage” value in data set [1] is “U”. Moreover, the “Stimulates L1 production” value in the data set with L1 is given as “U”. Also, in the data set with dermal Fb, the “Suppression” value was “suppress”. Moreover, the Promotes neuron survival entry in the data set with neuron survival is reported as “U”. In [6] (0.002% CHX), the “Protection of gingival Fb against cytotoxicity induced by CHX” value is recorded as “protects”. The “Inhibition of chlorhexidine digluconate and Peridex induced cytotoxicity” value in data set [6] (cultured human gingival fibroblasts, Peridex diluted to 0.002% CHX) is “can inhibit”. Besides, the Suppresses inflammation result in data set [3] is recorded as “P”. Further, the Promotes neurite outgrowth entry in the data set on neurite outgrowth is reported as “U”.

In the case of Thymosin β4 [Tb4, reference compound], the “Inhibits NFkB translocation” value in data set [7] is recorded as “P”. Besides, in the data set with human dermal fibroblasts [4] (setting [9]), the “Protection of Fb against the cytotoxic effects of CHX (LDH)” value is given as “protect”. Moreover, the “Protection of Fb against the cytotoxic effects of CHX (LDH)” value in the data set on human dermal fibroblasts [4] (setting [10]) was “protect”. For the same substance, in the data set on human dermal fibroblasts [4], the Protects from cytotoxicity result is “P”. Moreover, the “Protection of gingival Fb against CHX-induced apoptosis” value in data set [5] is recorded as “protect”. Further, the Secretion of elastin result in the data set with human dermal fibroblasts [8] (dermal Fb, 1 μg/ml once/day, 24, 48, or 72 hours) is given as “stimulate”. Besides, in the data set with human dermal fibroblasts [8] (summary of peptide uses), the “Stimulates Elastin” value is reported as “P”. Further, in the data set on human dermal Fb, the “Protection of dermal Fb against CHX-induced apoptosis” value is on record as “protect” and the Inhibits apoptosis result is on record as “P”. The “Restores impaired T-lymphocyte blastogenic response” value with T-lymphocyte is “P”. Also, in data set [1], the “Inhibits tissue damage caused” value is given as “P” and the “Protects tissue from UV radiation damage” value is listed as “P”. For the same substance, the “Stimulates L1 production” value in the data set on L1 was “P”. Also, the “Suppression” value in the data set on dermal Fb is given as “suppress”. Further, in data set [2], the “Suppression” value is “suppress”. Moreover, in the data set with neuron survival, the Promotes neuron survival entry is “P”. Further, the “Stimulates Migration” value with cell migration is reported as “P”. Also, the Suppresses inflammation result in data set [3] is “P”. Besides, in the data set on neurite outgrowth, the Promotes neurite outgrowth entry is “P”.
